These are literature values, as cited in patent EP3357492B1, “MULTILAYER TABLET FOR ADMINISTRATION OF MAGNESIUM” (S.I.I.T. S.r.l.-Servizio Internazionale Imballaggi …, priority 2017, dated 2018).

For the first data set the following is noted: in water.
For `[O]=[Mg]` [Oxide, Magnesium oxide], the “Solubility (g/100 g water)” value is given as less than 1 g/100 g water.

Turning to Glycerophosphate, the “Solubility (g/100 g water)” value is 4 g/100 g water.

As to Phosphate, the “Solubility (g/100 g water)” value is reported as 40-50 g/100 g water.

Conditions in another data set: not given
As to `O.O.O=C1O[C@H]([C@@H](O)CO)C([O-])=C1O.O=C1O[C@H]([C@@H](O)CO)C([O-])=C1O.[Mg+2]` [Ascorbate 2 hydrate], the “pH (1% in water solution)” value was 7. Turning to `N[C@@H](CC(=O)O)C(=O)[O-].N[C@@H](CC(=O)O)C(=O)[O-].O.O.O.O.[Mg+2]` [Aspartate 4 hydrate], the “pH (1% in water solution)” value is 7.

Consider `O=C([O-])[O-].[Na+].[Na+]` [Carbonate], for which the “pH (1% in water solution)” value is on record as 10. Consider `O.O.O.O.O.O.[Cl-].[Cl-].[Mg+2]` [Chloride 6 hydrate], for which the “pH (1% in water solution)” value is reported as 5. Consider `O=C(O)CC(O)(CC(=O)O)C(=O)O` [Citrate], for which the “pH (1% in water solution)” value is 4. Consider `O=C([O-])CC(O)(CC(=O)[O-])C(=O)[O-].O=C([O-])CC(O)(CC(=O)[O-])C(=O)[O-].[Mg+2].[Mg+2].[Mg+2]` [Dicitrate], for which the “pH (1% in water solution)” value was 9. On to `[Mg+2].[OH-].[OH-]` [Hydroxide, Magnesium hydroxide], for which the “pH (1% in water solution)” value is 10.5. Turning to `[O]=[Mg]` [Oxide, Magnesium oxide], the “pH (1% in water solution)” value was 10.5. Consider `O.O.O.O.O.O=P([O-])([O-])[O-].O=P([O-])([O-])[O-].[Mg+2].[Mg+2].[Mg+2]` [Phosphate 5 hydrate], for which the “pH (1% in water solution)” value is reported as 8. Regarding `O=C1CC[C@@H](C(=O)[O-])N1.O=C1CC[C@@H](C(=O)[O-])N1.[Mg+2]` [Pidolate], the “pH (1% in water solution)” value is recorded as 6.

On to `O=C([O-])CC(O)(CC(=O)[O-])C(=O)[O-].[K+].[K+].[K+]` [Potassium citrate], for which the “pH (1% in water solution)” value was 7.5. As to `CCC(=O)O` [Propionate], the “pH (1% in water solution)” value is recorded as 10. Take Fumarate: the “pH (1% in water solution)” value is 7. Consider Gluconate, for which the “pH (1% in water solution)” value is on record as 7. On to Glycerophosphate, for which the “pH (1% in water solution)” value is recorded as 7. With Lactate, the “pH (1% in water solution)” value was 7. As for Phosphate, the “pH (1% in water solution)” value is reported as 6.
